Measured values from ChEMBL document CHEMBL1124454, “2,3-Dihydro-5-benzofuranols as antioxidant-based inhibitors of leukotriene biosynthesis” (J Med Chem, 1989).

Experiments:
Homo sapiens [1] = species on record: Homo sapiens; assay: cells
physchem = settings: octanol/water
Description: Partition coefficient (logP)

Homo sapiens [2] = species on record: Homo sapiens; assay: Inhibitory activity against Leukotriene (LTB4) biosynthesis in isolated human polymorphonuclear cells (PMNs); not active; type: functional

| Structure (SMILES) | IC50 (Homo sapiens [1]) [nM] | logP (physchem) | IC50 (Homo sapiens [2]) |
| --- | --- | --- | --- |
| Oc1cc2c(cc1CCCSc1ccccc1)OCC2 | 19 | 4.9 |  |
| COC(=O)c1cccc(OCCCOc2cc3c(cc2O)CCO3)c1 | 68 | 3.7 |  |
| C=CCc1cc2c(c(C)c1O)CCO2 | 130 | 3.5 |  |
| Oc1cc2c(cc1OCCCc1ccccc1)OCC2 | 51 | 4.2 |  |
| CCCc1cc2c(c(C)c1O)CCO2 | 160 | 4.1 |  |
| CCCc1cc2c(c(C(C)(C)C)c1O)CCO2 | 430 | 5.4 |  |
| Oc1cc2c(cc1CCCOc1ccc(Cl)cc1)OCC2 | 55 | 5.1 |  |
| CC(C)c1cc2c(cc1O)CCO2 | 300 | 3.3 |  |
| C=CCc1cc2c(cc1O)CCO2 | 480 | 2.9 |  |
| Oc1cc2c(cc1CCCNc1ccccc1)OCC2 | 140 | 3.8 |  |
| CCCc1ccc(OCCCc2cc3c(cc2O)CCO3)cc1 | 9 | 6 |  |
| Oc1ccc2c(c1CCCNc1ccccc1)CCO2 | 1400 | 3.8 |  |
| Oc1cc2c(cc1CCCSCc1cccnc1)OCC2 | 280 | 3.3 |  |
| Oc1cc2c(cc1CCCOc1ccccc1)OCC2 | 57 | 4.3 |  |
| Oc1ccc2c(c1CCCSCc1cccnc1)CCO2 | 2000 | 3.3 |  |
| CCCCOc1cc2c(cc1O)CCO2 | 180 | 3.1 |  |
| Oc1cc2c(cc1Sc1ccncc1)OCC2 | 2600 | 2.8 |  |
| COCCOc1cc2c(cc1O)CCO2 | 3200 | 1.3 |  |
| Oc1ccc2c(c1)CCO2 | 4000 | 1.7 |  |
| CC(C)(C)c1c(O)ccc2c1CCO2 | 730 | 3.7 |  |
| O=C(O)c1ccccc1OCCCOc1cc2c(cc1O)CCO2 |  |  | Not Active |
| Oc1ccc2c(c1CCCOc1ccccc1)CCO2 | 290 | 4.3 |  |
| N#CCCCc1cc2c(cc1O)CCO2 | 1400 | 1.8 |  |
| Oc1cc2c(cc1Sc1ccccn1)OCC2 | 2800 | 2.8 |  |
| Oc1cc2c(cc1Oc1ccccc1)OCC2 | 420 | 3.7 |  |
| Oc1cc2c(cc1OCCCOc1ccccc1)OCC2 | 320 | 3.4 |  |
| C=CCc1c(O)ccc2c1CCO2 | 2100 | 2.9 |  |

| Structure (SMILES) | IC50 (Homo sapiens [1]) [nM] | logP (physchem) | IC50 (Homo sapiens [2]) |
| --- | --- | --- | --- |
| COC(=O)c1ccc(OCCCOc2cc3c(cc2O)CCO3)cc1 | 71 | 3.7 |  |
| Oc1ccc2c(c1CCCSc1ccccc1)CCO2 | 120 | 4.9 |  |
| O=C1CCN(c2ccccc2)N1 [PHENIDONE] | 8000 |  |  |
| Cc1c(O)c(CCCSc2ccccc2)cc2c1CCO2 | 19 | 5.9 |  |
| Oc1cc2c(cc1Cc1ccccc1)OCC2 | 280 | 3.9 |  |
| Oc1cc2c(cc1Sc1cccnc1)OCC2 | 1200 | 2.8 |  |
| Oc1cc2c(cc1CCCOc1ccc(F)cc1)OCC2 | 28 | 4.5 |  |
| CCCc1cc2c(cc1O)CCO2 | 290 | 3.4 |  |
| O=C(O)CCCc1cc2c(cc1O)CCO2 |  |  | Not Active |
| OCCc1cccc(OCCCc2cc3c(cc2O)CCO3)c1 | 60 | 3.5 |  |
| OCCCc1cc2c(cc1O)CCO2 | 10000 | 1.4 |  |
| OCCCc1c(O)ccc2c1CCO2 | 33000 | 1.4 |  |
| Oc1cc2c(cc1SCc1ccccc1)OCC2 | 110 | 4.1 |  |
| Oc1cc2c(cc1Sc1ccccc1)OCC2 | 140 | 4.1 |  |
| OCCc1ccccc1OCCCc1cc2c(cc1O)CCO2 | 290 | 3.5 |  |
| CCCOc1cc2c(cc1O)CCO2 | 470 | 2.6 |  |
| CC(C)(C)c1cc2c(cc1O)CCO2 | 790 | 3.7 |  |
| OCCc1ccc(OCCCc2cc3c(cc2O)CCO3)cc1 | 340 | 3.5 |  |
| COC(=O)Cc1ccc(OCCCOc2cc3c(cc2O)CCO3)cc1 | 120 | 3.1 |  |
| CCCc1c(O)ccc2c1CCO2 | 1000 | 3.4 |  |
| O=C(O)Cc1ccc(OCCCOc2cc3c(cc2O)CCO3)cc1 |  |  | Not Active |
| Oc1cc2c(cc1SCCc1ccccc1)OCC2 | 66 | 4.4 |  |
| CCCc1cc2c(c(Br)c1O)CCO2 | 65 | 4.3 |  |
| COC(=O)c1ccccc1OCCCOc1cc2c(cc1O)CCO2 | 47 | 3.4 |  |
| O=C(O)c1cccc(OCCCOc2cc3c(cc2O)CCO3)c1 | 5100 |  |  |
| Oc1cc2c(cc1SCCCc1ccccc1)OCC2 | 28 | 4.9 |  |
